Source: PubChem BioAssay AID1259334 (Broad Institute, 2017)
The source made the active and inactive calls. Rule as the data show it: active = AC50 below about 11 µM. Peptide text beside a SMILES is read from it. * marks the point of attachment. Cbz = O=C(OCc1ccccc1)*

tested on: B cell line, TNFa signaling counterscreen reporter; assay: TNFa pathway inhibition counter-screen, B-lineage cells – dose response (AID 1259334);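 also: cells stimulated with TNFa after compound preincubation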

SMILES | AC50
COc1cc(/C=N/n2cnnc2)ccc1OC(=O)c1ccncc1 | 8.26 µM
CC(C)c1ccc(NC(=O)Nc2nc(C(N)COCc3ccccc3)cs2)cc1 (stereo unspecified) | 1.78 µM
Cc1ccc(S(=O)(=O)CCC(=O)N(CCCN2CCOCC2)c2nc3ccccc3s2)cc1 | 7.38 µM
COc1ccccc1NC(c1cccnc1)c1ccc2cccnc2c1O (stereo unspecified) | 8.22 µM
C[C@@H]1CN([C@@H](C)CO)C(=O)c2c(c3ccccc3n2C)-c2ccccc2CO[C@H]1CN(C)Cc1ccccc1 | 5.53 µM
C[n+]1c2n(c3ccccc31)N=C(c1ccc(-c3ccccc3)cc1)CS2 | 1.25 µM
Cc1ccc2c(c1)C(O)(CC(=O)/C=C/C=C/c1ccccc1)C(=O)N2 (stereo unspecified) | > 20 µM (inactive)
COc1ccc(-c2ccc([C@H]3[C@@H](C#N)N(C(=O)c4cccc(F)c4)[C@H]3CO)cc2)cc1 | > 22 µM (inactive)
OC1(c2ccc(Cl)c(C(F)(F)F)c2)CCN(CCCC(c2ccc(F)cc2)c2ccc(F)cc2)CC1 | 8.99 µM
O=C(C[C@@H]1CC[C@@H]2[C@H](COC[C@H](O)CN2Cc2cc(F)ccc2F)O1)NCc1ccc(Oc2ccccc2)cc1 | 5.02 µM
C1CCC(C(CC2CCCCN2)C2CCCCC2)CC1 (stereo unspecified) | 2.75 µM
CCS(=O)(=O)N1[C@H](CO)[C@@H](c2ccc(C#Cc3ccccc3F)cc2)[C@@H]1C#N | 7.11 µM
C[C@H]1CN([C@@H](C)CO)C(=O)Cc2cc(NC(=O)Cc3cn(C)c4ccccc34)ccc2O[C@H]1CN(C)Cc1ccc(C(F)(F)F)cc1 | > 20 µM (inactive)
O=C1CCCCC1Sc1nnc(-c2ccc3c(c2)OCO3)o1 (stereo unspecified) | 0.871 µM
CC1CC(C)(O)CC(C(O)CC2CC(=O)NC(=O)C2)C1=O (stereo unspecified) | 0.0899 µM
CCN1C(=O)C(CC(=O)Nc2ccc(F)cc2)N(Cc2ccco2)C1=S (stereo unspecified) | > 20 µM (inactive)
COC(=O)C1=C(C)NC(C)=C(C(=O)OCCCN2CCC(c3ccccc3)(c3ccccc3)CC2)[C@H]1c1cccc([N+](=O)[O-])c1 | 4.12 µM
CC(C)OC(=O)c1cn(Cc2c(F)cccc2F)c2sc(-c3ccc(NC(=O)C(C)C)cc3)c(CN(C)Cc3ccccc3)c2c1=O | 8.24 µM
O=C(Cc1ccccc1)N1CC[C@@H]2[C@H]1c1cc(-c3cccc(F)c3)ccc1N[C@@H]2CO | 10.7 µM
CC(C)(C)NCC(=Cc1ccccc1)C(=O)c1ccccc1 | 2.84 µM
O=C(CNC(=O)c1ccco1)Nc1ccc2c(c1)OCCO2 | > 20 µM (inactive)
O=S(=O)(CCSc1ccccn1)c1nc2ccccc2s1 | 5.13 µM
CCCCCCCCCc1ccc(OCCOCCOCCOCCOCCOCCOCCOCCOCCO)cc1 | 4.58 µM

SMILES | AC50
CNC(=S)NN=C(C)CCCC(C)=NNC(=S)NC | 2.47 µM
CC(C)C[C@@H](C=O)NC(=O)[C@H](CC(C)C)NC(=O)[C@H](CC(C)C)NC(=O)OCc1ccccc1 (Cbz-Leu-Leu-Leu-aldehyde) | 3.82 µM
c1ccc(-c2ccc(-c3ccccn3)nn2)nc1 | 6.99 µM
Cn1cnc([N+](=O)[O-])c1S(=O)(=O)Oc1cccc2ccccc12 | 0.397 µM
NC(=O)c1c(Br)n(C2OC(CO)C(O)C2O)c2ncnc(N)c12 (stereo unspecified) | 1.5 µM
OC(c1cc(-c2cccc(Cl)c2)nc2ccccc12)C1CCCCN1 (stereo unspecified) | 2.26 µM
CCOc1ccc(OCc2cccc(C(=O)N3CCOCC3)c2)cc1 | 2.84 µM
C[C@@H]1CN([C@H](C)CO)C(=O)c2c(c3ccccc3n2C)-c2ccccc2CO[C@H]1CN(C)C(=O)c1cc(Cl)cc(Cl)c1 | > 20 µM (inactive)
CSC1SCC2C(=O)N(C)C(C(C)C)C(=O)OCC(NC(=O)c3cnc4ccccc4n3)C(=O)NC(C)C(=O)N(C)C1C(=O)N(C)C(C(C)C)C(=O)OCC(NC(=O)c1cnc3ccccc3n1)C(=O)NC(C)C(=O)N2C (stereo unspecified) | < 0.0005 µM
Cc1ccc(-c2cc(C(=O)N(C)CC(=O)Nc3ccccc3Br)c3ccccc3n2)o1 | 11.1 µM
CC[C@@]1(O)C(=O)OCc2c1cc1n(c2=O)Cc2cc3ccccc3nc2-1 | 0.531 µM
O=[N+]([O-])c1ccc(N2CCOCC2)c2c1no[n+]2[O-] | 6.5 µM
NC(c1ccccc1)c1csc(NC(=O)Nc2cccc(C(F)(F)F)c2)n1 (stereo unspecified) | 3.07 µM
CC1CC(C)C(=NNC(N)=O)C(C(O)CC2CCC(=O)NC2=O)C1 (stereo unspecified) | 0.188 µM
CC[C@@]1(O)C(=O)OCc2c1cc1n(c2=O)Cc2cc3cc(O)ccc3nc2-1 | 1.13 µM
CN(C)C(=S)SSC(=S)N(C)C | 0.0358 µM
COC1=CC(=O)c2c(ccc3ncnc(N)c23)C1=O | 0.98 µM
c1cc(-c2cnn3cc(-c4ccc(OCCN5CCCCC5)cc4)cnc23)ccn1 | 1.13 µM
C[C@@H]1CN([C@H](C)CO)C(=O)c2cc(NS(=O)(=O)c3cccs3)ccc2O[C@@H](C)CCCCO[C@H]1CN(C)Cc1ccc(Cl)c(Cl)c1 | > 20 µM (inactive)
COc1ccc(CC2C(=O)NC(C)C(=O)N(C)C3C(=O)N(C)C(Cc4ccc(O)c(c4)Oc4ccc(cc4)C3O)C(=O)NC(C)C(=O)NC(C)C(=O)N2C)cc1 (stereo unspecified) | 0.0133 µM
COc1ccc(/C=C/C(=O)Nc2ccccc2C(=O)O)cc1OC | 8.81 µM
CCC(C)[C@H]1O[C@]2(CC[C@@H]1C)C[C@@H]1C[C@@H](C/C=C(\C)[C@@H](OC3C[C@H](OC)C(O[C@H]4C[C@H](OC)[C@@H](O)[C@H](C)O4)[C@H](C)O3)[C@@H](C)/C=C/C=C3\CO[C@@H]4[C@H](O)C(C)=C[C@@H](C(=O)O1)[C@]34O)O2 (stereo partly specified) | > 20 µM (inactive)
CC(C)(C)CC(C)(C)c1ccc(OCCOCC[N+](C)(C)Cc2ccccc2)cc1 | 1.75 µM
